Laboratory results as given in patent US12473295B2, “Substituted straight chain spiro derivatives” (Janssen Pharmaceutica NV, priority 2019, dated 2025).
Counter-ions that a name gives are not always drawn. Like-named read-outs stand apart in the source and are kept apart here.

How the values were obtained:
[1] = molecular target: menin/MLL (terbium chelate-labeled menin, FITC-MBM1 peptide) (Homo sapiens (Human), UniProt O00255); assay: Menin/MLL homogenous time-resolved fluorescence (HTRF) assay; format: binding;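 also: IC50 from percent inhibition of HTRF signal, normalized between wells without competitor and wells with a saturating competitor that displaces FITC-MBM1 from His-tagged menin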
MOLM14 cells = assay: Proliferation assay (spheroid growth, 8 days), MOLM14; format: cell-based, human; conditions: MOLM14, 8 days, read-out: spheroid assay_OneTime MOLM14 IC50;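 also: spheroid size read as confluence by live-cell imaging, compounds added at a range of concentrations with 0.3% DMSO, DMSO-treated wells = 0%, highest reference dose = low control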
KO-52 cells = assay: Proliferation assay (spheroid growth, 8 days), KO-52 control cell line; format: cell-based, human; conditions: read-out: spheroid assay_OneTime KO-52 IC50
Protocol: (§1) The anti-proliferative effect of menin/MLL protein/protein interaction inhibitor test compounds was assessed in human leukemia cell lines. The cell line MOLM14 harbors a MLL translocation and expresses the MLL fusion protein MLL-AF9, respectively, as well as the wildtype protein from the second allele. OCI-AML3 cells that carry the NPM1c gene mutation were also tested. […] KO-52 was used as a control cell line containing two MLL (KMT2A) wildtype alleles in order to exclude compounds that display general cytotoxic effects.
(§2) KO-52 and OCI-AML3 cell lines were propagated in alpha-MEM (Sigma Aldrich) supplemented with 20% heat-inactivated fetal bovine serum (HyClone), 2 mM L-glutamine (Sigma Aldrich) and 50 μg/ml gentamycin (Gibco).
(§3) In order to assess the anti-proliferative effects, 200 MOLM14 cells, 200 OCI-AML3 cells or 300 KO-52 cells were seeded in 200 μl media per well in […] round bottom, ultra-low attachment plates (Costar, catalogue number 7007). Cell seeding numbers were chosen based on growth curves to ensure linear growth throughout the experiment. Test compounds were added at different concentrations and the DMSO content was normalized to 0.3%. Cells were incubated for 8 days at 37° C. and 5% CO2. Spheroid like growth was measured in real-time by live-cell imaging (IncuCyteZOOM, Essenbio, 4× objective) acquiring images at day 8. Confluence (%) as a measure of spheroid size was determined using an integrated analysis tool.
(§4) In order to determine the effect of the test compounds over time, the confluence in each well as a measure of spheroid size, was calculated. Confluence of the highest dose of a reference compound was used as baseline for the LC (Low control) and the confluence of DMSO treated cells was used as 0% cytotoxicity (High Control, HC).
(§5) GraphPad Prism(version 7.00) was used to calculate the IC50. Dose-response equation was used for the plot of % Effect vs Log 10 compound concentration with a variable slope and fixing the maximum to 100% and the minimum to 0%.

MEIS1 mRNA = MEIS1 mRNA expression assay (Quantigene Singleplex) in MOLM14 cells; format: cell-based, human; conditions: 48 hours incubation;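 also: MEIS1 transcript levels read by probe hybridization and normalized to RPL28 mRNA, with IC50 fitted to fold changes across a rising compound concentration series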
OCI-AML3 cells = assay: Proliferation assay (spheroid growth, 8 days), OCI-AML3; format: cell-based, human; conditions: Homo sapiens, OCI-AML-3, […], OCI-AML3, 8 days
Protocol: as §1, §2, §3, §4, §5

[2] = HTRF-30 min incubation IC50, 30 min incubation
[3] = read-out: HTRF-30 min incubation IC50, 30 min incubation

Chain of menin/MLL (terbium chelate-labeled menin, FITC-MBM1 peptide) (O00255 other isoform, or with tags, fused parts or gaps): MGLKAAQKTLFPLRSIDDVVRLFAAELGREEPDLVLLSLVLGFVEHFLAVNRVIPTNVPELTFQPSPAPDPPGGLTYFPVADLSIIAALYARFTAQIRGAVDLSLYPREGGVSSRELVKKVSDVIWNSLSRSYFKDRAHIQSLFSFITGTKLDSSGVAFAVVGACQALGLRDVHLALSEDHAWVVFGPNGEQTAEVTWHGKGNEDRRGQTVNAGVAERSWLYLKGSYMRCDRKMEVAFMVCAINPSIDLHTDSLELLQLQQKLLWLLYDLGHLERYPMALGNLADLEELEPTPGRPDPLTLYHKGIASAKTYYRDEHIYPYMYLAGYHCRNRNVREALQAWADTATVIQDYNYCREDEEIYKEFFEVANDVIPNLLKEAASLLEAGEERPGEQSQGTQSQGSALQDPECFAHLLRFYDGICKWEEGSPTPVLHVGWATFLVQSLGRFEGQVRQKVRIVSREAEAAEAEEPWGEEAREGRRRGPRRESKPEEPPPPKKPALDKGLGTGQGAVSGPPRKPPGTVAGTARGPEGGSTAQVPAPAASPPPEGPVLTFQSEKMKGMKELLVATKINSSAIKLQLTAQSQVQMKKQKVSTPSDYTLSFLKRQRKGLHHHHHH

IC50 [1, 2]	IC50 (MOLM14 cells; Homo sapiens, MOLM-14, […])	IC50 (MEIS1 mRNA; Homo sapiens, MOLM-14, 48 h)	IC50 [1, 3]	IC50 (MOLM14 cells)	IC50 (MEIS1 mRNA)	IC50 (OCI-AML3 cells)	Compound	IC50 (KO-52 cells; Homo sapiens, […])	IC50 (KO-52 cells)
2.42 nM	970 nM	~2250 nM	–	–	–	–	CCN(C(=O)c1cc(F)ccc1Oc1nncnc1N1CCC2(C1)CN(C(CCNC(C)=O)C(C)C)C2)C(C)C (stereo not drawn) [Compound 29]	> 15000 nM	–
1.85 nM	370 nM	~670 nM	–	–	–	–	CCN(C(=O)c1cc(F)ccc1Oc1nncnc1N1CCC2(C1)CN([C@H](CCCN(C)CC(F)F)C(C)C)C2)C(C)C [Compound 16, (R)-2-((5-(2-(6-((2,2-difluoroethyl)(methyl)amino)-2-methylhexan-3-yl)-2,6-diazaspiro[3.4]octan-6-yl)-1,2,4-triazin-6-yl)oxy)-N-ethyl-5-fluoro-N-isopropylbenzamide]	10500 nM	–
86.2 nM	> 3750 nM	> 2500 nM	–	–	–	–	CCN(C(=O)c1cc(F)ccc1Oc1nncnc1N1CCC2(C1)CN([C@@H](CCCNC(C)=O)C(C)C)C2)C(C)C [Compound 7, (S)-2-((5-(2-(6-acetamido-2-methylhexan-3-yl)-2,6-diazaspiro[3.4]octan-6-yl)-1,2,4-triazin-6-yl)oxy)-N-ethyl-5-fluoro-N-isopropylbenzamide]	> 15000 nM	–
–	–	–	70.4 nM	> 940 nM	> 1000 nM	–	CCN(C(=O)c1cc(F)ccc1Oc1nncnc1N1CCC2(C1)CN([C@@H](CCCO)C(C)C)C2)C(C)C (single isomer, unassigned) [Compound 48, (*S)—N-ethyl-5-fluoro-2-((5-(2-(6-hydroxy-2-methylhexan-3-yl)-2,6-diazaspiro[3.4]octan-6-yl)-1,2,4-triazin-6-yl)oxy)-N-isopropylbenzamide]	–	> 15000 nM
10.5 nM	> 3750 nM	~1200 nM	–	–	–	–	CCN(C(=O)c1cc(F)ccc1Oc1nncnc1N1CCC2(C1)CN([C@@H](CN)C(C)C)C2)C(C)C (single isomer, unassigned) [Compound 25, (*R)-2-((5-(2-(1-amino-3-methylbutan-2-yl)-2,6-diazaspiro[3.4]octan-6-yl)-1,2,4-triazin-6-yl)oxy)-N-ethyl-5-fluoro-N-isopropylbenzamide]	> 15000 nM	–
44.7 nM	> 3750 nM	–	–	–	–	–	CCN(C(=O)c1cc(F)ccc1Oc1nncnc1N1CCC2(C1)CN([C@@H](CCCNC(=O)NC)C(C)C)C2)C(C)C [Compound 9, (S)—N-ethyl-5-fluoro-N-isopropyl-2-((5-(2-(2-methyl-6-(3-methylureido)hexan-3-yl)-2,6-diazaspiro[3.4]octan-6-yl)-1,2,4-triazin-6-yl)oxy)benzamide]	> 15000 nM	–
2.6 nM	> 940 nM	> 1000 nM	–	–	–	–	CCN(C(=O)c1cc(F)ccc1Oc1nncnc1N1CCC2(C1)CN([C@@H](CCC(C)(C)NC)C(C)C)C2)C(C)C (single isomer, unassigned) [Compound 36, (*S)-2-((5-(2-(2,6-dimethyl-6-(methylamino)heptan-3-yl)-2,6-diazaspiro[3.4]octan-6-yl)-1,2,4-triazin-6-yl)oxy)-N-ethyl-5-fluoro-N-isopropylbenzamide hydrochloride]	> 15000 nM	–
10.4 nM	> 940 nM	> 1000 nM	–	–	–	–	CCN(C(=O)c1cc(F)ccc1Oc1nncnc1N1CCC2(C1)CN([C@H](CCCN(C)CC(F)(F)F)C(C)C)C2)C(C)C [Compound 21, (R)-N-ethyl-5-fluoro-N-isopropyl-2-((5-(2-(2-methyl-6-(methyl(2,2,2-trifluormethyl)amino)hexan-3-yl)-2,6-diazaspiro[3.4]octan-6-yl)-1,2,4-triazin-6-yl)oxy)benzamide]	> 15000 nM	–
1.16 nM	520 nM	~1100 nM	–	–	–	–	CC(C)[C@H](CCC(C)(C)N)N1CC2(CCN(c3ncnnc3Oc3ccc(F)cc3-c3cncnc3C3CC3)C2)C1 (single isomer, unassigned) [Compound 38, (*S)-5-(6-(6-(2-(4-cyclopropylpyrimidin-5-yl)-4-fluorophenoxy)-1,2,4-triazin-5-yl)-2,6-diazaspiro[3.4]octan-2-yl)-2,6-dimethylheptan-2-amine]	> 15000 nM	–
3.31 nM	2220 nM	> 2500 nM	–	–	–	–	CCN(C(=O)c1cc(F)ccc1Oc1nncnc1N1CCC2(C1)CN([C@@H](CCCN)C(C)C)C2)C(C)C [Compound 2, (S)-2-((5-(2-(6-amino-2-methylhexan-3-yl)-2,6-diazaspiro[3.4]octan-6-yl)-1,2,4-triazin-6-yl)oxy)-N-ethyl-5-fluoro-N-isopropylbenzamide formate]	> 15000 nM	–
–	–	–	59.7 nM	> 3750 nM	> 2500 nM	–	CNC(=O)CC[C@H](C(C)C)N1CC2(CCN(c3ncnnc3Oc3ccc(F)cc3-c3cncnc3C3CC3)C2)C1 (single isomer, unassigned) [Compound 46, (*R)-4-(6-(6-(2-(4-cyclopropylpyrimidin-5-yl)-4-fluorophenoxy)-1,2,4-triazin-5-yl)-2,6-diazaspiro[3.4]octan-2-yl)-N,5-dimethylhexanamide]	–	> 15000 nM
2.84 nM	> 940 nM	> 1000 nM	–	–	–	–	CCN(C(=O)c1cc(F)ccc1Oc1nncnc1N1CCC2(C1)CN([C@@H](CCC(C)(C)N(C)C)C(C)C)C2)C(C)C (single isomer, unassigned) [Compound 33, (*S)-2-((5-(2-(6-(dimethylamino)-2,6-dimethylheptan-3-yl)-2,6-diazaspiro[3.4]octan-6-yl)-1,2,4-triazin-6-yl)oxy)-N-ethyl-5-fluoro-N-isopropylbenzamide]	> 15000 nM	–
46.6 nM	> 3750 nM	> 2500 nM	–	–	–	–	CC(C)[C@H](CCC(N)=O)N1CC2(CCN(c3ncnnc3Oc3ccc(F)cc3-c3cncnc3C3CC3)C2)C1 (single isomer, unassigned) [Compound 44]	> 15000 nM	–
2.26 nM	840 nM	~990 nM	–	–	–	–	CCN(C(=O)c1cc(F)ccc1Oc1nncnc1N1CCC2(C1)CN([C@@H](CCCN(C)C)C(C)C)C2)C(C)C [Compound 5, (S)-2-((5-(2-(6-(dimethylamino)-2-methylhexan-3-yl)-2,6-diazaspiro[3.4]octan-6-yl)-1,2,4-triazin-6-yl)oxy)-N-ethyl-5-fluoro-N-isopropylbenzamide formate]	> 15000 nM	–
2.28 nM	> 940 nM	> 1000 nM	–	–	–	–	CCN(C(=O)c1cc(F)ccc1Oc1nncnc1N1CCC2(C1)CN([C@@H](CCC(C)(C)N)C(C)C)C2)C(C)C (single isomer, unassigned) [Compound 31, (*S)-2-((5-(2-(6-amino-2,6-dimethylheptan-3-yl)-2,6-diazaspiro[3.4]octan-6-yl)-1,2,4-triazin-6-yl)oxy)-N-ethyl-5-fluoro-N-isopropylbenzamide]	> 15000 nM	–
0.12 nM	640 nM	~440 nM	–	–	–	1850 nM	CCN(C(=O)c1cc(F)ccc1Oc1nnc(NC)nc1N1CCC2(C1)CN([C@H](CCCN)C(C)C)C2)C(C)C [Compound 409, (R)-2-((5-(2-(6-amino-2-methylhexan-3-yl)-2,6-diazaspiro[3.4]octan-6-yl)-3-(methylamino)-1,2,4-triazin-6-yl)oxy)-N-ethyl-5-fluoro-N-isopropylbenzamide hydrochloride]	–	–
0.051 nM	720 nM	~590 nM	–	–	–	1490 nM	CCN(C(=O)c1cc(F)ccc1Oc1nnc(C)nc1N1CCC2(C1)CN([C@H](CCCN)C(C)C)C2)C(C)C [Compound 413, (R)-2-((5-(2-(6-amino-2-methylhexan-3-yl)-2,6-diazaspiro[3.4]octan-6-yl)-3-methyl-1,2,4-triazin-6-yl)oxy)-N-ethyl-5-fluoro-N-isopropylbenzamide formate]	–	–
–	> 940 nM	–	–	–	–	–	CCN(C(=O)c1cc(F)ccc1Oc1nncnc1N1CCC2(C1)CN([C@@H](CCCNC)C(C)C)C2)C(C)C [Compound 20, (S)—N-ethyl-5-fluoro-N-isopropyl-2-((5-(2-(2-methyl-6-(methylamino)hexan-3-yl)-2,6-diazaspiro[3.4]octan-6-yl)-1,2,4-triazin-6-yl)oxy)benzamide hydrochloride]	> 15000 nM	–
